Measurements as given in patent US9028856B2, “Synergistic pesticide compositions” (priority 2008, dated 2015).

Experiments:
[1] = tested on: Musca domestica, susceptible strain WHO(N); assay: Contact efficacy against houseflies on filter papers in glass dishes; format: in vivo; settings: % a.i. conc. in acetone on filter papers, Table 97
Method: Male Musca domestica, susceptible strain WHO(N), were used.
A solution of the active ingredient in acetone was prepared. A concentration row was made. After evaporation of the acetone (30′), the dishes were closed by a glass lid and transferred into the test room. One day later twenty flies, anaesthetized with CO2, are counted into each dish. At regular intervals, knock down was recorded (cumulatively). Each test consisted of one replicate. […]

[2] = format: physicochemical; settings: classified from Log P
Text: As used herein, a “partition coefficient” is defined as the ratio of concentrations of an un-ionized compound between solutions of water and octanol. To measure the partition coefficient of ionizable solutes, the pH of the aqueous phase is adjusted such that the predominant form of the compound is un-ionized. The logarithm of the ratio of the concentrations of the un-ionized solute in the solvents is referred to herein as log P or log K ow.
As noted herein, the octanol-water partition coefficient may be used to identify the cuticular penetration of a particular active ingredient. One factor in the relative speed through which any insecticide acts is the insecticide's ability to cross the insect cuticle. A determining factor for cuticle penetration is Log K ow, also known as Log P. Log K ow (Log P) is the octanol-water partition coefficient for a neutral molecule. Log P is used hereinfurther, but, as noted above, the term is synonymous with Log K ow. As previously noted, the cuticular penetration of any particular active ingredient as against a plant cuticle is not indicative of that same active ingredient's ability to penetrate an insect cuticle.
The cuticular penetration of a compound is classified as “INTERMEDIATE” when the Log P value is between about 2.0 and about 4.0.

[3] = tested on: Musca domestica, susceptible strain WHO(N); assay: Efficacy of formulations on surfaces (glazed/unglazed tiles), house flies, continuous exposure; format: in vivo; settings: strain WHO(N) susceptible, acetone solutions on glazed tiles, mean of three replicates
Method: A flat fan nozzle (type SS 8003-E) in a spray cabin was moved automatically over a defined area where the solutions were sprayed very evenly onto the surfaces. The formulation was mixed with water to give a concentration which corresponded to the desired quantity of a.i./m^2. A defined quantity of this solution was sprayed onto the area (nominal 350 liter/ha=0.77 ml per surface).
All surfaces were provided with talcum-coated glass rings (diameter 9.5 cm, height 5.5 cm) one day later.
The test insects were anesthetized with CO2, 20 individuals were placed onto the treated surfaces and the glass ring was covered with wire gauze ring.
Knock down was determined after 15 and 30′, 1, 2, 4 and 6 hours, mortality after 1 day exposure.
Each test consisted of at least one replicate and any additional replicates are noted.
Test Insects: House flies (Musca domestica) of both sexes, susceptible strain WHO(N) and resistant strain Reichswald
Evaluation: Mortality was evaluated cumulatively at different times. […]
Test Insects: Culex quinquefasciatus (adults) (3 minutes exposure time according to USDA Petri Dish Method), Musca domestica (adults), susceptible and resistant strain, Blattella germanica (males), Cimex lectularius (adults) (all: continuous exposure time)
Application: The EC formulation (diluted with water 1:9) were applied as 0.85 ml solutions onto glazed tiles (15 cm×15 cm)
Evaluation: Knock down after 15, and 30 minutes, 1, 2, 3, 4, 6 and 24 hours (mortality)
Test Insects: Culex quinquefasciatus (adults, susceptible) (3 minutes exposure time according to USDA Petri Dish Method), Musca domestica (adults, susceptible and resistant), Blattella germanica (males, susceptible) (both: continuous exposure time)
Formulations: Insecticide with or without 10% Compound A (as EC), to be diluted with water (1 part formulation+9 parts water)
Evaluation: Knock down after 3, 9 (mosquitoes only), 15, and 30 minutes, 1, 2, 3, 4 and 24 hours (mortality) […]

Aedes aegypti mosquito = assay: USDA Petri Dish Method, 3 min exposure to treated glazed tile; format: in vivo; settings: Table 37, resmethrin/adjuvant in acetone, glazed tile, 3 min exposure
Procedure, shortened: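 Resmethrin or clothianidin in acetone, with or without adjuvant, applied to glazed tile and dried overnight; twenty 4-6 day old female mosquitoes exposed 3 minutes, then moved to clean index card. Knockdown scored at intervals over hours; mortality at 24 hours with sucrose provided; at least three replicates.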

[4] = tested on: Culex quinquefasciatus mosquito; assay: USDA Petri Dish Method, 3 min exposure to treated glazed tile (twenty 4-6 day old females); format: in vivo; settings: in vivo
Method: MATERIALS AND METHODS: Solutions of resmethrin at 1 and 0.5% AI were prepared with and without adjuvant in acetone. […] USDA Petri Dish Method was used as initial screening protocol. Twenty, 4-6 day old female Culex quinquefasciatus mosquitoes were exposed to each treatment for 3 minutes and then moved to a clean untreated white paper index card. Treatments were replicated a minimum of three times. Mosquito knockdown was evaluated at 3 minute intervals for the first 15 minutes and then at 5 minute intervals for the remainder of an hour. A small cotton ball soaked in sucrose solution was added on the screen top of the petri-dish as a drinking source after the 2 hour evaluation. Mortality was evaluated at 24 hours after exposure.
(§1) Treatments were allowed to dry overnight. USDA Petri Dish Method was used as initial screening protocol. Twenty, 4-6 day old female Culex mosquitoes were exposed to each treatment for 3 minutes and then moved to a clean untreated white paper index card. Treatments were replicated a minimum of three times. Mosquito knockdown was evaluated at various intervals through 3 hours after exposure. A small cotton ball soaked in sucrose solution was added on the screen top of the petri-dish as a drinking source. Mortality was evaluated at 24 hours after exposure.
as §1, with “female Culex quinquefasciatus mosquitoes were” for “female Culex mosquitoes were”, “intervals through 2 hours after” for “intervals through 3 hours after”, “solution was then added on” for “solution was added on”
as §1, with “Culex quinquefasciatus” for “Culex”, “hourly intervals.” for “intervals through 3 hours after exposure.”, “source after 2 hours.” for “source.”

Row | Compound | % knock down after ([1]; 15′) [%] | % knock down after ([1]; 30′) [%] | % knock down after ([1]; 1 h) [%] | % knock down after ([1]; 1.5 h) [%] | % knock down after ([1]; 2 h) [%] | % knock down after ([1]; 3 h) [%] | % knock down after ([1]; 4 h) [%] | % knock down after ([1]; 6 h) [%] | % knock down after ([1]; 1 d) [%] | further results
1 | CC1(C)C(C=C(Br)Br)C1C(=O)OC(C#N)c1cccc(Oc2ccccc2)c1 (stereo not shown) [0.0016% DTM] | 0 | 5 | 70 | 90 | 100 | 100 | 100 | 100 | 95 | –
2 | CCOP(=S)(OCC)Oc1nc(Cl)c(Cl)cc1Cl [chlorpyrifos] | – | – | – | – | – | – | – | – | – | Likelihood of Direct Insect Cuticular Penetration [2]: Fast (classified as “FAST” when it has a Log P value of about >4.0)
3 | CC1(C)[C@H](C(=O)O[C@H](C#N)c2cccc(Oc3ccccc3)c2)[C@@H]1C=C(Br)Br [0.001% DTM] | – | – | – | – | – | – | – | – | – | % Mortality after ([3]; 15′): 2%; % Mortality after ([3]; 30′): 18%; % Mortality after ([3]; 1 h): 58%; % Mortality after ([3]; 2 h): 80%; % Mortality after ([3]; 3 h): 88%; % Mortality after ([3]; 24 h): 92%
4 | CC1(C)[C@H](C(=O)O[C@H](C#N)c2cccc(Oc3ccccc3)c2)[C@@H]1C=C(Br)Br [0.00032% DTM] | 0 | 0 | 5 | 30 | 50 | 65 | 65 | 60 | 95 | –
5 | CC1(C)[C@H](C(=O)O[C@H](C#N)c2cccc(Oc3ccccc3)c2)[C@@H]1C=C(Br)Br [0.000064% DTM] | 0 | 0 | 0 | 0 | 0 | 0 | 0 | 15 | 80 | –
6 | CCOP(=S)(OCC)Oc1cc(C)nc(C(C)C)n1 [diazinon] | – | – | – | – | – | – | – | – | – | Likelihood of Direct Insect Cuticular Penetration [2]: Intermediate (classified as “INTERMEDIATE” when the Log P value is between about 2.0 and about 4.0)
7 | CC1(C)[C@H](C(=O)O[C@H](C#N)c2cccc(Oc3ccccc3)c2)[C@@H]1C=C(Br)Br [0.0000128% DTM] | 0 | 0 | 0 | 0 | 0 | 0 | 0 | 15 | 70 | –
8 | CC(C)=CC1C(C(=O)OCc2coc(Cc3ccccc3)c2)C1(C)C (stereo not shown) [Resmethrin (0.5%)] | – | – | – | – | – | – | – | – | – | Average % Knockdown & Mortality after 3 min (Aedes aegypti mosquito; 3 min): 0%; Average % Knockdown & Mortality after 15 min (Aedes aegypti mosquito; 15 min): 0%; Average % Knockdown & Mortality after 30 min (Aedes aegypti mosquito; 30 min): 0%; Average % Knockdown & Mortality after 60 min (Aedes aegypti mosquito; 60 min): 0%; Average % Knockdown & Mortality after 24 hr (Aedes aegypti mosquito; 24 hr): 8%; Average % Knockdown & Mortality after 3 min [4]: 0%; Average % Knockdown & Mortality after 15 min [4]: 0%; Average % Knockdown & Mortality after 30 min [4]: 0%; Average % Knockdown & Mortality after 60 min [4]: 0%; Average % Knockdown & Mortality after 2 hr [4]: 0%; Average % Knockdown & Mortality after 24 hr [4]: 0%
